Source: patent publication US12509734B2, “Systems and methods to assess microbiomes and treatments thereof” (priority 2013, dated 2025)

How the values were obtained:
bacterial vaginosis (BV) [1] = assay: Clinical assessment of BV patients after therapy (Amsel criteria, Nugent score, recurrence); assay type: in vivo, human
Source text: Patients. Five African American participants were followed at the Vaginitis Clinic at Wayne State University and had been treated for recurrent episodes symptomatic bouts of BV. Patients were enrolled after protocol explanation and written informed consent was obtained. The study was endorsed by the Human Investigational Review Board of Wayne State University. At the time of enrollment, patients were diagnosed with florid symptomatic acute BV, characterized by the presence of at least 3 of the 4 Amsel criteria (homogeneous vaginal discharge, pH elevated above 4.5, clue cells>20%, positive whiff test) and Nugent scores of at least 8.
At this immediate PT visit, patients were given Catch-All Sample Collection Swabs (Epicentre Biotechnologies, Madison, WI) and 15 mL conical tubes for vaginal specimen self-collection. […] Samples from a previously characterized group of recurrent BV patients, sampled before and after treatment, were also evaluated by Lb-qPCR. Reichman et al., Sexually Transmitted Diseases 36: 732-734, 2009.

[2] = tested on: vaginal microbiota (PB-primer target groups); assay: PB-qPCR microbial profiles of vaginal swabs of recurrent BV patients (Example 2); assay type: in vivo, human
Method: Sample processing, DNA extraction, and qPCR. Microbial gDNA was purified from swabs in 1-2 ml saline or lysis solution by a high SDS/alkaline lysis—phenol extraction protocol as described previously in Lambert and resuspended in 200 μL TE (10 mM Tris, pH 8, 1 mM EDTA). The lysed bacterial gDNA is stable for over one month at room temperature in lysis solution buffer (data not shown) and this buffer prevents changes in titer due to possible stability issues with different strains of bacteria in saline. An aliquot of purified DNA was assayed by qPCR with 18 universal and phylogenetic branch-inclusive (PB) primers and PCR conditions as described previously in Lambert. Additional primers, targeting the Enterococcus genus and its cytolysin gene CyILL, are provided in SEQ ID NOs: 92 and 95 (Enterococcus), and 93 and 96 (cytolysin gene). Each PB-primer targets a branch of the phylogenetic tree, from whole phyla to family or genus, and is far more inclusive than species-specific primers. Relative LB composition of the vaginal microbiome was determined by dividing the Lactobacillaceae titer by the sum of all PB-primers and by using the disclosed LB-blocker approach. Briefly, the LB-blocker approach uses the difference between the quantitative cycles (Cq) of two parallel qPCR reactions with universal primers targeting the 16S rRNA gene, when one of the reactions is in the presence of LB spp.-specific blocking oligomers (LB-blockers) that have been chemically modified to prevent extension and that partially overlap the universal primer binding site, effectively rendering the LB DNA “invisible” to the universal PCR, even when LB gDNA is present at great excess compared to non-LB gDNA, as is common in healthy and PT samples. PB-primers amplicons were selectively sequenced to confirm they were correctly targeted and to identify the dominant species. These were “cleaned” enzymatically as described in Lambert, and Sanger sequenced at Functional Biosciences (Madison, WI). Sequences were uploaded to Ribosomal Database Project II using its Pipeline function; species were identified based on phylogenetic trees constructed in Molecular Evolutionary Genetics Analysis (MEGA5) software.
Calculations. Cq values from qPCR reactions were converted to molecules per reaction by comparing sample Cq values to a standard curve from the same run of Cq values derived from dilutions of an amplicon of known target of known concentration. Molecules per reaction were converted to cells per swab, assuming an average of 5 ribosomal genes per cell and proportioned to the ratio of the volume of the sample used in the DNA prep and the amount of sample used in the qPCR reaction. Delta Cq (ΔCq) values of LB-blocked reaction pairs were calculated as Cq (blocked sample)−Cq (unblocked sample). Differences between patient groups were compared using the t test in (GraphPad software).

[3] = tested on: relative LB content of the vaginal microbiome; assay: Lb-qPCR / LbRC: delta Cq of LB-blocked versus unblocked universal qPCR of vaginal samples; assay type: in vivo, human; details: separate group of recurrent BV patients, FIG. 11
Method: Sample processing, DNA extraction, and qPCR. Microbial gDNA was purified from swabs in 1-2 ml saline or lysis solution by a high SDS/alkaline lysis—phenol extraction protocol as described previously in Lambert and resuspended in 200 μL TE (10 mM Tris, pH 8, 1 mM EDTA). The lysed bacterial gDNA is stable for over one month at room temperature in lysis solution buffer (data not shown) and this buffer prevents changes in titer due to possible stability issues with different strains of bacteria in saline. An aliquot of purified DNA was assayed by qPCR with 18 universal and phylogenetic branch-inclusive (PB) primers and PCR conditions as described previously in Lambert. Additional primers, targeting the Enterococcus genus and its cytolysin gene CyILL, are provided in SEQ ID NOs: 92 and 95 (Enterococcus), and 93 and 96 (cytolysin gene). Each PB-primer targets a branch of the phylogenetic tree, from whole phyla to family or genus, and is far more inclusive than species-specific primers. Relative LB composition of the vaginal microbiome was determined by dividing the Lactobacillaceae titer by the sum of all PB-primers and by using the disclosed LB-blocker approach. […]
Calculations. […] Delta Cq (ΔCq) values of LB-blocked reaction pairs were calculated as Cq (blocked sample)−Cq (unblocked sample). […]

bacterial vaginosis (BV) [4] = details: 121 women with BV successfully treated; cited from earlier work
[5] = P2, 500 mg suppositories, 2 per day for 7 days
[6] = P5, 7 daily 500 mg vaginal suppositories
[7] = separate group of recurrent BV patients

Question: What does the source list for CCC[C@@H]1C[C@@H](C(=O)N[C@@H]([C@H]2O[C@H](SC)[C@H](O)[C@@H](O)[C@H]2O)[C@H](C)Cl)N(C)C1 [clindamycin]?
Answer: Nugent score after treatment (bacterial vaginosis (BV) [1]; P3, Nugent 10 before): 0; Actinobacteridae (G. vaginalis) after treatment, fold lower than P1 or P2 ([2]; P3-post): 10-100 fold; Mobiluncus share after treatment ([2]; P3-post): 0.4%; Share of all other targets after treatment ([2]; P3-post): below 0.01%

Question: Which results are given for Cc1ncc([N+](=O)[O-])n1CCO [metronidazole]?
Answer: delta Cq score after treatment, Post A group [3]: 4.1±2.2; delta Cq score after treatment, Post B group [3]: 17±6; Clinical status 10 days later (bacterial vaginosis (BV) [1]; P1, daily suppositories 750 mg): full remission; Day of recurrence of symptomatic BV (bacterial vaginosis (BV) [1]; P1, daily suppositories 750 mg): 94 days; Amsel status after treatment (bacterial vaginosis (BV) [1]; P1, high dose vaginal): Amsel negative; Nugent score after treatment (bacterial vaginosis (BV) [1]; P1, high dose vaginal, after first and second BV episodes): 0; Florid episodes of BV in the two previous years in spite of prophylactic therapy (bacterial vaginosis (BV) [1]; P1, vaginal 500-750 mg twice weekly): 4; Amsel status after treatment (bacterial vaginosis (BV) [1]; P2-post1, oral): Amsel negative; Nugent score after treatment (bacterial vaginosis (BV) [1]; P2-post1, oral): 0; Day symptoms were reported after second treatment (bacterial vaginosis (BV) [1]; [5]): 152 days; Response to second treatment (bacterial vaginosis (BV) [1]; [5]): recovered well; Time to recurrence after second treatment (self-reported) (bacterial vaginosis (BV) [1]; P2, 2x500 mg suppositories daily for 7 days): approximately 117 days PT; Clinical status one week later (bacterial vaginosis (BV) [1]; P2, oral 500 mg bid for 7 days): asymptomatic; Time of symptomatic recurrence after enrollment (bacterial vaginosis (BV) [1]; P2, oral 500 mg bid for 7 days): 35 days; Clinical status 21 days later (bacterial vaginosis (BV) [1]; [6]): asymptomatic in clinical remission; Nugent score 21 days later (bacterial vaginosis (BV) [1]; [6]): 4; Outcome at return within three weeks by Amsel criteria (bacterial vaginosis (BV) [1]; five recurrent BV patients, Nugent scores of 0 except Patient 5): clinical cure; Nugent average after treatment, Post A group (bacterial vaginosis (BV) [1]; [7]): 2.2±4.0; Nugent average after treatment, Post B group (bacterial vaginosis (BV) [1]; [7]): 0.8±1.2; Women who recurred within one year (bacterial vaginosis (BV) [4]): 58%; Women who returned to abnormal vaginal profiles (bacterial vaginosis (BV) [4]): 69%; Actinobacteridae (G. vaginalis) share after treatment ([2]; P1-post1): 2%; Lactobacillaceae share of post-treatment samples ([2]; P1-post1 and -post2, high dose vaginal): > 97%; Further fold reduction of G. vaginalis ([2]; P1-post2 versus P1-post1): ~100 fold; Actinobacteridae (G. vaginalis) share after treatment ([2]; P2-post1, oral): < 0.5%; Share of 6-8 other targets after treatment ([2]; P2-post1, oral): under 0.1%
